Earlier results, collected in US20050288375A1, “Method and composition for treating neurodegenerative disorders” (Myriad Genetics, Incorporated, priority 2003, published 2005).

Experiments:
[1] = test system: brain cells after cerebral ischemia; settings: rats
[2] = not given; remark: listed apart in the source
[3] = rofecoxib at 25 mg daily; naproxen in the same trial

Compound | side effects at high doses | efficacy for treating AD [3] | other results
COc1ccc2c(c1)[C@@]13CCCC[C@H]1[C@@H](C2)N(C)CC3 [dextromethorphan, (+)-3-methoxy-N-methylmorphinan] | drowsiness, nausea, and decreased coordination |  | 
c1ccc(C2(N3CCCCC3)CCCCC2)cc1 [PCP, Phencyclidine] |  |  | destruction of brain cells after cerebral ischemia [1]: prevent the destruction of brain cells
CN1CC[C@]23CCCC[C@H]2[C@H]1Cc1ccc(O)cc13 [dextrorphan, (+)-3-hydroxy-N-methylmorphinan] | drowsiness, nausea, and decreased coordination |  | 
CC12CC3CC(C)(C1)CC(N)(C3)C2 [memantine, 1-amino-3,5-dimethyl adamantane] |  |  | efficacy in treating mild-to-moderate AD [2]: showed efficacy
COc1ccc2cc([C@H](C)C(=O)O)ccc2c1 [Naproxen] |  | failed to show efficacy | 
CS(=O)(=O)c1ccc(C2=C(c3ccccc3)C(=O)OC2)cc1 [rofecoxib] |  | failed to show efficacy | 
